Results as given in US20250090498A1, “TREATMENT OF PRIMARY CTLA-4 CHECKPOINT RELATED IMMUNODEFICIENCIES” (ADIENNE PHARMA & BIOTECH SA, priority 2023, published 2025).

Assays:
[1] = toxicology, up to 3 weeks, PAS tissue pathology in C57BL/6 mice; type: in vivo; settings: 0.36-0.18-0.09 mg/mouse intragastrically, enteric microparticles
Experimental: For assess toxicology, C57BL/6 mice received intragastrically escalating doses of 0.36-0.18-0.09 mg/mouse of 3-IAld or 1ME3CA formulated in enteric microparticles for up to 3 weeks as shown in Table 3 below. At the end of treatment, mice were sacrificed, and tissue pathology blindly examined on different organs after PAS staining of different section from each organ. Sections of organs from 4 mice in each group were separately evaluated.

[2] = single-dose pharmacokinetic study in healthy C57BL/6 mice, tissues and serum by mass spectrometry
Experimental: A single-dose pharmacokinetic (PK) study was performed on healthy C57BL/6 mice to compare 1ME3CA and 3-IAld at 0.36 mg/topo dose. Untreated naïve mice were used as the control. […] Blood, obtained by cardiac puncture and collected into EDTA-containing tubes, and organs (brain, lung, intestine, liver and kidney) were assessed. All samples were stored at −80° C. until use. To evaluate 1ME3CA and 3-IAld for functional activity, the expression of AhR-downstream genes were concomitantly evaluated in these mice.

AhR = molecular target: T1, AhR (Homo sapiens, UniProt P35869); assay: AhR target gene expression by RT-PCR in A549, Calu-3, CaCo-2 and HepG32 cell lines; type: cell-based; set-up: endogenous in cells; host or cells: HepG2, A549, Calu-3, CaCo-2; settings: for AhR activity at the higher 1000 M concentration: increased in CaCo-2 and HepG32 but not on Calu-3 cells
T1 sequence (P35869 11-848): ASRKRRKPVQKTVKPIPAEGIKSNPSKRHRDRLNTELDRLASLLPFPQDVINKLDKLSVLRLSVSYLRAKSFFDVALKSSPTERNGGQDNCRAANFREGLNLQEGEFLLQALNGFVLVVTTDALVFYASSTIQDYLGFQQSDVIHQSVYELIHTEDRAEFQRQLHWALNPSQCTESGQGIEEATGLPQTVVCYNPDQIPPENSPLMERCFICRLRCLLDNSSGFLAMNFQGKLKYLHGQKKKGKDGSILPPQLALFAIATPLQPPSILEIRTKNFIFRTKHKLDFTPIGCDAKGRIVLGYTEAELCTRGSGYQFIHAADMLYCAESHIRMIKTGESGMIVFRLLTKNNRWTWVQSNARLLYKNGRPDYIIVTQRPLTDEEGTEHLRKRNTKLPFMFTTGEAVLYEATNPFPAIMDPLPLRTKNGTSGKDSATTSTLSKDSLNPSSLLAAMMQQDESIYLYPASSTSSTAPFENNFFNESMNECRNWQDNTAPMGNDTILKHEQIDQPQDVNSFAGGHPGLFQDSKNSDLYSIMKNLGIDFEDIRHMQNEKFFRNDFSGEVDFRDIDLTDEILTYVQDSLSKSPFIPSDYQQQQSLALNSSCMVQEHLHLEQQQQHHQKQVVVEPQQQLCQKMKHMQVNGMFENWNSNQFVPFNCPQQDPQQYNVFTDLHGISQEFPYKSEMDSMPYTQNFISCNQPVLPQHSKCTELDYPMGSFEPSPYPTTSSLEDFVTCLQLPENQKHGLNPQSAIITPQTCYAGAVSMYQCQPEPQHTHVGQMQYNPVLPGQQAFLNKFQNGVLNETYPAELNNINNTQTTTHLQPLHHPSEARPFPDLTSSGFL
Experimental: ITE and FICZ are reference AhR agonists. Assays were performed at 4 hours post-incubation.
To further characterize the AhR agonistic potential of 1ME3CA, the ability of 3-IAld and 1ME3CA to activate target genes downstream AhR (Cyp1a1, Cyp2a1 and AhRR) in the A549 cell line derived from adenocarcinomic human alveolar basal epithelial cells, in the Calu-3 cell line derived from adenocarcinomic human bronchial epithelial cells, in the CaCo-2 cell line derived from human colon carcinoma and in the […] human liver cancer cell line was comparatively assessed. Cells were exposed to 1, 10, 100 and 1000 µM of either molecules or DMSO for 4 hours or overnight (on) at 37° C. before being assessed for the expression of the above-mentioned genes by RT-PCR.

| SMILES | tissue pathology in different organs (PAS) [1] | concentrations in all organs ([2]; after enteric 1ME3CA 18 mg/Kg) | disappearance of 3-IAld from tissues ([2]; single oral 18 mg/Kg 3-IAld, enteric microparticles, after 2 hours, most tissues) | expression of the IDO1 and IDO2 genes (AhR) | AhR activity at the higher 1000 M concentration (AhR) | detectability at 6 hours in serum, lung, and kidneys ([2]; after enteric 1ME3CA 18 mg/Kg) | Cmax values ([2]; after enteric 1ME3CA 18 mg/Kg, all organs and serum) | levels 24 hours after the administration in intestine, liver and brain ([2]; after enteric 1ME3CA 18 mg/Kg, versus control) | systemic levels versus those after oral 3-IAld ([2]; after oral 1ME3CA) | clearance of metabolites from the organs ([2]; after oral 3-IAld 18 mg/Kg) | concentrations in the intestine, serum, and kidney ([2]; after oral 3-IAld 18 mg/Kg) | level 24 hours after administration of 3-IAld ([2]; mice administered with 3-IAld) | AhR agonistic activity versus 3-IAld (overall) (AhR) | expression of AhR-dependent Cyp1a1, Cyp2a1 and AhRR genes (AhR; cell lines tested, 4 hours or overnight) | extent of gene expression versus reference AhR ligands ITE or FICZ and 3-IAld (AhR; similar concentration, i.e. 100 μM) |
| --- | --- | --- | --- | --- | --- | --- | --- | --- | --- | --- | --- | --- | --- | --- | --- |
| O=Cc1c[nH]c2ccccc12 [3-IAld, 1H-indole-3-carbaldehyde] | absence of visible tissue pathology | basal | rapidly disappeared | No activity was observed | inconsistent results | – | – | – | – | – | – | – | – | – | – |
| Cn1cc(C(=O)O)c2ccccc21 [1-methylindole-3-carboxylic acid, 1-Methyl-1H-indole-3-carboxylic acid] | absence of visible tissue pathology | – | – | No activity was observed | inconsistent results | undetectable | very similar | still higher than control | more sustained and, as expected, significantly higher | rapid clearance | basal | had disappeared | comparable, if not superior | promoted the expression | comparable, or even superior |
